By IC50 is commonly meant the concentration that gives 50% inhibition.

The target of one assay is human BACE1 (Homo sapiens, UniProt P56817). As to the kind of experiment: Fluorescent kinetic assay, human BACE1 (FRET peptide substrate WABC-6).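 Note: fluorescence monitored at excitation 320 nm and emission 420 nm over 30 min, with the substrate cleavage rate taken as the linear slope of the signal.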
human BACE1, sequence (P56817 46-501): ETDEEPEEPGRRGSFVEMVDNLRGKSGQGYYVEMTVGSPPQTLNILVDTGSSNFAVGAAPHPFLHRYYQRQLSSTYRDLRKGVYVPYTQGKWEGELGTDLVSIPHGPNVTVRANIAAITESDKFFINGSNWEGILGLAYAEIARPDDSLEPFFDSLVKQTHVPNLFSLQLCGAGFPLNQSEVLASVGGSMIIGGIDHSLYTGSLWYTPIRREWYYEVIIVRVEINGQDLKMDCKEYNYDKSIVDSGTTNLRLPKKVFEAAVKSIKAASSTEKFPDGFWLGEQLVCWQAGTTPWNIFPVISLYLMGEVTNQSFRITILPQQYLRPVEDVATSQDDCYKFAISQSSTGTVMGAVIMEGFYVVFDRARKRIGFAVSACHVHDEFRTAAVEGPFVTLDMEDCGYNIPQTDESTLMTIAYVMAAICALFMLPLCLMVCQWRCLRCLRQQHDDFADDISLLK
Settings: not given
The format is biochemical.
As to `N/C(=N/C(=O)Cn1c(-c2ccccc2)ccc1C12CC3CC(CC(C3)C1)C2)NCCCO` [Example 395], the IC50 was in the range of 0.11 to 1 µM.
Still for that read-out and setting: next, `N=C(NCc1cccc(N)c1)NC(=O)Cn1c(-c2ccccc2)ccc1C12CC3CC(CC(C3)C1)C2` [Example 421]: 0.11 to 1 µM.

Still in this assay, the particulars now being: fluorescent kinetic assay, 25 μM substrate WABC-6, pH 4.5, room temperature; read-out: IC50 (μM) BACE 1.
Take 4-n-propyl-piperidine [Example 185]: the IC50 fell in the range of 1.1 to 5 µM.
For the compound `Cc1ccc(-c2ccc(-c3ccc(Cl)s3)n2CC(=O)N=C(N)N)cc1` [Example 110], the IC50 was in the range of 1.1 to 5 µM.
Still for that read-out and setting: as for `COc1ccc(OC)c(-c2ccc(-c3ccc(Oc4ccccc4)cc3)n2CC(=O)N=C(N)N)c1` [Example 133], the figure is 1.1 to 5 µM.
Same read-out and setting: next, `COc1ccc(OC)c(-c2ccc(-c3ccc(Oc4ccc(C(C)=O)cc4)cc3)n2CC(=O)N=C(N)N)c1` [Example 135]: 0.11 to 1 µM.
On the same count and under the same terms, next, `COc1cccc(-c2ccc(-c3ccc4ccccc4c3)n2CC(=O)N=C(N)N)c1` [Example 147]: 1.1 to 5 µM.
For the compound `NC(N)=NC(=O)Cn1c(-c2ccccc2)ccc1-c1ccc(C(=O)N2CCSC2)cc1` [Example 169], the IC50 lay in the range of 1.1 to 5 µM.
On the same count and under the same terms, next, `CC1CCN(C(=O)c2ccc(-c3ccc(-c4ccccc4)n3CC(=O)N=C(N)N)cc2)CC1` [Example 170]: 1.1 to 5 µM.
The same measure, in the same setting: next, `Cc1cccc(C(=O)Nc2ccc(-c3ccc(-c4ccccc4)n3CC(=O)N=C(N)N)cc2)c1` [Example 236]: 1.1 to 5 µM; `NC(N)=NC(=O)Cn1c(-c2ccccc2)ccc1-c1ccc(NC(=O)COc2ccccc2)cc1` [Example 242]: 1.1 to 5 µM.
On the same count and under the same terms, as for `NC(N)=NC(=O)Cn1c(-c2ccccc2)ccc1-c1ccc(NS(=O)(=O)c2ccc(Cl)s2)cc1` [Example 258], the figure is 1.1 to 5 µM.
As for `C=CCCOc1ccc(-c2ccc(-c3ccccc3)n2CC(=O)N=C(N)N)cc1` [Example 273], the IC50 was 1.1 to 5 µM.
The same measure, in the same setting: as for `CC[C@H](C)COc1ccc(-c2ccc(-c3ccccc3)n2CC(=O)N=C(N)N)cc1` [Example 283], the figure is 1.1 to 5 µM; as for `NC(=NC(=O)Cn1c(-c2ccc(Oc3ccccc3)cc2)ccc1-c1ccccc1Cl)NCCCO` [Example 310], 0.11 to 1 µM.
As to `C=CCCCOc1ccc(-c2ccc(-c3ccccc3Cl)n2CC(=O)NC(=N)NCCCO)cc1` [Example 313], the IC50 lay within 0.11 to 1 µM.
On the same count and under the same terms, as for `N#CCCCCOc1ccc(-c2ccc(-c3ccccc3Cl)n2CC(=O)N=C(N)NCCCO)cc1` [Example 314], the figure is 0.01 to 0.1 µM; as for `C=CCCCCOc1ccc(-c2ccc(-c3ccccc3Cl)n2CC(=O)N=C(N)NCCCO)cc1` [Example 315], 0.11 to 1 µM.
The same measure, in the same setting: next, `N/C(=N/C(=O)Cn1c(-c2ccc(OCCC3OCCO3)cc2)ccc1-c1ccccc1Cl)NCCCO` [Example 316]: 0.11 to 1 µM.
On the same count and under the same terms, next, `CCCCCOc1ccc(-c2ccc(-c3ccccc3Cl)n2CC(=O)/N=C(/N)NCCCO)cc1` [Example 317]: 0.11 to 1 µM.
`N#Cc1ccc(-c2ccc(-c3ccccc3)n2CC(=O)N=C(N)NCCCO)cc1` [Example 318]: the IC50 fell in the range of 1.1 to 5 µM.
For the compound `CC(C)c1ccc(-c2ccc(-c3ccccc3)n2CC(=O)N=C(N)NCCCO)cc1` [Example 319], the IC50 lay within 0.11 to 1 µM.
Take `CCCc1ccc(-c2ccc(-c3ccccc3)n2CC(=O)N=C(N)NCCCO)cc1` [Example 320]: the IC50 lay in the range of 0.11 to 1 µM.
Same read-out and setting: as for `CCCCc1ccc(-c2ccc(-c3ccccc3)n2CC(=O)N=C(N)NCCCO)cc1` [Example 321], the figure is 0.11 to 1 µM; as for `CC(C)Cc1ccc(-c2ccc(-c3ccccc3)n2CC(=O)N=C(N)NCCCO)cc1` [Example 322], 0.11 to 1 µM.
Still for that read-out and setting: next, `CCCCCc1ccc(-c2ccc(-c3ccccc3)n2CC(=O)N=C(N)NCCCO)cc1` [Example 323]: 0.11 to 1 µM; `CCCCOc1ccc(-c2ccc(-c3ccccc3)n2CC(=O)N=C(N)NCCCO)cc1` [Example 324]: 0.11 to 1 µM; `NC(=NC(=O)Cn1c(-c2ccccc2)ccc1-c1ccc(-c2ccccc2)cc1)NCCCO` [Example 325]: 0.11 to 1 µM.
With `NC(=NC(=O)Cn1c(-c2ccccc2)ccc1-c1ccc(C2CCCCC2)cc1)NCCCO` [Example 327], the IC50 lay in the range of 0.11 to 1 µM.
On the same count and under the same terms, as for `NC(=NC(=O)Cn1c(-c2ccccc2)ccc1-c1ccc(Oc2ccccc2)cc1)NCCCO` [Example 328], the figure is 0.11 to 1 µM; as for `CC(=O)c1ccc(Oc2ccc(-c3ccc(-c4ccccc4)n3CC(=O)N=C(N)NCCCO)cc2)cc1` [Example 329], 0.11 to 1 µM.
Still for that read-out and setting: next, `N#Cc1ccc(-c2ccc(-c3ccccc3)n2CC(=O)N=C(N)NCc2ccc(F)c(F)c2F)cc1` [Example 330]: 1.1 to 5 µM.
Still for that read-out and setting: as for `CC(C)c1ccc(-c2ccc(-c3ccccc3)n2CC(=O)N=C(N)NCc2ccc(F)c(F)c2F)cc1` [Example 331], the figure is 1.1 to 5 µM; as for `CCCc1ccc(-c2ccc(-c3ccccc3)n2CC(=O)N=C(N)NCc2ccc(F)c(F)c2F)cc1` [Example 332], 0.11 to 1 µM; as for `CCCCc1ccc(-c2ccc(-c3ccccc3)n2CC(=O)N=C(N)NCc2ccc(F)c(F)c2F)cc1` [Example 333], 0.11 to 1 µM.
Regarding `CCCCOc1ccc(-c2ccc(-c3ccccc3)n2CC(=O)N=C(N)NCc2ccc(F)c(F)c2F)cc1` [Example 334], the IC50 lay within 0.11 to 1 µM.
The same measure, in the same setting: next, `NC(=NC(=O)Cn1c(-c2ccccc2)ccc1-c1ccc(C2CCCCC2)cc1)NCc1ccc(F)c(F)c1F` [Example 336]: 0.11 to 1 µM.
On the same count and under the same terms, as for `NC(=NC(=O)Cn1c(-c2ccccc2)ccc1-c1ccc(Oc2ccccc2)cc1)NCc1ccc(F)c(F)c1F` [Example 337], the figure is 0.11 to 1 µM; as for `CC(=O)c1ccc(Oc2ccc(-c3ccc(-c4ccccc4)n3CC(=O)N=C(N)NCc3ccc(F)c(F)c3F)cc2)cc1` [Example 338], 1.1 to 5 µM; as for `CCN/C(N)=N\C(=O)Cn1c(-c2ccccc2)ccc1C12CC3CC(CC(C3)C1)C2` [Example 390], 0.11 to 1 µM.
In the case of `CCCN/C(N)=N\C(=O)Cn1c(-c2ccccc2)ccc1C12CC3CC(CC(C3)C1)C2` [Example 391], the IC50 lay in the range of 0.11 to 1 µM.
`CCCCCN/C(N)=N\C(=O)Cn1c(-c2ccccc2)ccc1C12CC3CC(CC(C3)C1)C2` [Example 392]: the half-inhibitory concentration (IC50) is 1.1 to 5 µM.
The same measure, in the same setting: next, `N#CCCCNC(=N)NC(=O)Cn1c(-c2ccccc2)ccc1C12CC3CC(CC(C3)C1)C2` [Example 393]: 0.11 to 1 µM; `CC(=O)OCCNC(N)=NC(=O)Cn1c(-c2ccccc2)ccc1C12CC3CC(CC(C3)C1)C2` [Example 394]: 0.11 to 1 µM.
The same measure, in the same setting: next, `N/C(=N/C(=O)Cn1c(-c2ccccc2)ccc1C12CC3CC(CC(C3)C1)C2)NCCO` [Example 396, 2-[2-(1-adamantyl)-5-phenyl-1H-pyrrol-1-yl]-N-{(1E)-amino[(2-hydroxyethyl)-amino]methylene}acetamide]: 0.11 to 1 µM.
For `N#CCCN/C(N)=N\C(=O)Cn1c(-c2ccccc2)ccc1C12CC3CC(CC(C3)C1)C2` [Example 397], the IC50 was 0.11 to 1 µM.
The same measure, in the same setting: next, `N/C(=N\C(=O)Cn1c(-c2ccccc2)ccc1C12CC3CC(CC(C3)C1)C2)NCCCCO` [Example 400, 2-[2-(1-Adamantyl)-5-phenyl-1H-pyrrol-1-yl]-N-{(1E)-amino[(4-hydroxybutyl)amino]-methylene}acetamide]: 0.11 to 1 µM.
With `NC(=NC(=O)Cn1c(-c2ccccc2)ccc1C12CC3CC(CC(C3)C1)C2)NCc1ccco1` [Example 401], the IC50 lay in the range of 1.1 to 5 µM.
The same measure, in the same setting: next, `NC(=NC(=O)Cn1c(-c2ccccc2)ccc1C12CC3CC(CC(C3)C1)C2)NCC1CCCO1` (stereo not shown) [Example 402]: 0.11 to 1 µM; `CC(O)CNC(N)=NC(=O)Cn1c(-c2ccccc2)ccc1C12CC3CC(CC(C3)C1)C2` (stereo not shown) [Example 404]: 0.11 to 1 µM.
As to `CC(O)CNC(N)=NC(=O)Cn1c(-c2ccccc2)ccc1C12CC3CC(CC(C3)C1)C2` (stereo not shown) [Example 405], the IC50 lay in the range of 0.11 to 1 µM.
With `N=C(NCC(O)CO)NC(=O)Cn1c(-c2ccccc2)ccc1C12CC3CC(CC(C3)C1)C2` (stereo not shown) [Example 406], the IC50 was 0.11 to 1 µM.
On to `CC(C)CNC(N)=NC(=O)Cn1c(-c2ccccc2)ccc1C12CC3CC(CC(C3)C1)C2` [Example 407], for which the IC50 is 1.1 to 5 µM.
Regarding `NC(=NC(=O)Cn1c(-c2ccccc2)ccc1C12CC3CC(CC(C3)C1)C2)NCC(F)(F)F` [Example 408], the IC50 fell in the range of 0.11 to 1 µM.
Still for that read-out and setting: as for `CCOC(=O)CCCNC(N)=NC(=O)Cn1c(-c2ccccc2)ccc1C12CC3CC(CC(C3)C1)C2` [Example 409], the figure is 1.1 to 5 µM; as for `N=C(NCCCn1ccnc1)NC(=O)Cn1c(-c2ccccc2)ccc1C12CC3CC(CC(C3)C1)C2` [Example 413], 1.1 to 5 µM; as for `COCCCNC(N)=NC(=O)Cn1c(-c2ccccc2)ccc1C12CC3CC(CC(C3)C1)C2` [Example 414], 0.11 to 1 µM.
The same measure, in the same setting: as for `COCCNC(N)=NC(=O)Cn1c(-c2ccccc2)ccc1C12CC3CC(CC(C3)C1)C2` [Example 415], the figure is 0.11 to 1 µM.
`NC(=NC(=O)Cn1c(-c2ccccc2)ccc1C12CC3CC(CC(C3)C1)C2)NCC(F)(F)C(F)(F)F` [Example 416]: the IC50 was 0.11 to 1 µM.
`NC(=NC(=O)Cn1c(-c2ccccc2)ccc1C12CC3CC(CC(C3)C1)C2)NC1CCCCCC1` [Example 417]: the IC50 was 0.11 to 1 µM.
Same read-out and setting: next, `C=CCNC(=O)c1ccc(-c2ccc(-c3ccccc3)n2CC(=O)N=C(N)NCc2nnc(C)o2)cc1` [Example 423]: 0.11 to 1 µM; `C=CCNC(=O)c1ccc(-c2ccc(-c3ccccc3)n2CC(=O)N=C(N)NCc2nc(C)cs2)cc1` [Example 424]: 0.11 to 1 µM.
With `C=CCNC(=O)c1ccc(-c2ccc(-c3ccccc3)n2CC(=O)N=C(N)NCCc2cccs2)cc1` [Example 425], the IC50 is 0.11 to 1 µM.
For `C=CCNC(=O)c1ccc(-c2ccc(-c3ccccc3)n2CC(=O)N=C(N)NCc2cccc(N)c2)cc1` [Example 426], the IC50 is 0.11 to 1 µM.
For `CCS(=O)(=O)N/C(N)=N\C(=O)Cn1c(-c2ccccc2)ccc1C12CC3CC(CC(C3)C1)C2` [Example 431, 2-[2-(1-adamantyl)-5-phenyl-1H-pyrrol-1-yl]-N-{(1Z)-amino[(ethyl-sulfonyl)amino]methylene}acetamide], the IC50 was 0.11 to 1 µM.
The same measure, in the same setting: as for `CCC(=O)c1ccc(-c2ccc(-c3ccccc3)n2CC(=O)NC(=N)N)cc1` [Example 447], the figure is 1.1 to 5 µM; as for `CCCCc1ccc(-c2ccc(-c3ccccc3)n2CC(=O)NC(=N)N)cc1` [Example 449], 0.11 to 1 µM.
